In patent publication US5607967A, “Treatment of alzheimer's disease with 5-(tetradecyloxy)-2-furan carboxylic acid” (Merck & Co., Inc., priority 1994, dated 1997):
Entries after “also recorded” stand apart in the source; their conditions may differ. Where two headings read alike, the source gives them in different places.

Experiments:
[1] = test system: Dopamine D2 receptor antagonist (Haloperidol) induced catalepsy; assay: Haloperidol induced catalepsy (Bar method); assay type: in vivo, rat; conditions: for Catalepsy Duration: TOFA 0.4 mg/kg S.C. pretreatment
GR/NER chimeric receptor [2] = assay: Activation of GR/NER in CV1 cells (luciferase)
Method: The ligand dependent transcription assays were performed as described in Example 4, using CV1 cells in place of COS cells. The transfected CV1 cells were treated with dopamine, TOFA, or with a combination of TOFA and dopamine at the indicated concentrations and tested for luciferase activity.
CV1 cells were co-transfected with the MMTV-Luciferase reporter gene (pJA358) and the GR/NER chimeric receptor as described in Example 4. The cells were treated with increasing amount of the dopamine D1 receptor antagonist SCH 23390 with or without 50 μM […] dopamine.

[3] = molecular target: T1, GR/PPAR chimeric receptor (Mus musculus, UniProt P23204); assay: Ligand dependent transcription assay, GR/PPAR chimeric receptor with MMTV-luciferase reporter; assay type: cell-based
T1 construct: COS cells, MMTV-luciferase
T1 sequence (P23204 1-468): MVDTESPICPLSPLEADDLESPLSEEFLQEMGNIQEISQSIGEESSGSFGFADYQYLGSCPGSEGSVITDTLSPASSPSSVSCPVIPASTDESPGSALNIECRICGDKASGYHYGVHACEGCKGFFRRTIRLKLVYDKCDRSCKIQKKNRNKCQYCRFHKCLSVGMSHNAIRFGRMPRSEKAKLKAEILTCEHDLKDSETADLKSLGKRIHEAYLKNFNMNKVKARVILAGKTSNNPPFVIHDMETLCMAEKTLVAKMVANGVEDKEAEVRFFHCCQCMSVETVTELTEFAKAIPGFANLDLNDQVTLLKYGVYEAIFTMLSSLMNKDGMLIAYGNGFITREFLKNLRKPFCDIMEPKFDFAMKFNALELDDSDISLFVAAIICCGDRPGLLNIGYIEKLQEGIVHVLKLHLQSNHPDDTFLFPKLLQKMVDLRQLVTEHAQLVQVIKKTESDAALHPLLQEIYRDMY
T1 sequence (P06537 1-792 partner): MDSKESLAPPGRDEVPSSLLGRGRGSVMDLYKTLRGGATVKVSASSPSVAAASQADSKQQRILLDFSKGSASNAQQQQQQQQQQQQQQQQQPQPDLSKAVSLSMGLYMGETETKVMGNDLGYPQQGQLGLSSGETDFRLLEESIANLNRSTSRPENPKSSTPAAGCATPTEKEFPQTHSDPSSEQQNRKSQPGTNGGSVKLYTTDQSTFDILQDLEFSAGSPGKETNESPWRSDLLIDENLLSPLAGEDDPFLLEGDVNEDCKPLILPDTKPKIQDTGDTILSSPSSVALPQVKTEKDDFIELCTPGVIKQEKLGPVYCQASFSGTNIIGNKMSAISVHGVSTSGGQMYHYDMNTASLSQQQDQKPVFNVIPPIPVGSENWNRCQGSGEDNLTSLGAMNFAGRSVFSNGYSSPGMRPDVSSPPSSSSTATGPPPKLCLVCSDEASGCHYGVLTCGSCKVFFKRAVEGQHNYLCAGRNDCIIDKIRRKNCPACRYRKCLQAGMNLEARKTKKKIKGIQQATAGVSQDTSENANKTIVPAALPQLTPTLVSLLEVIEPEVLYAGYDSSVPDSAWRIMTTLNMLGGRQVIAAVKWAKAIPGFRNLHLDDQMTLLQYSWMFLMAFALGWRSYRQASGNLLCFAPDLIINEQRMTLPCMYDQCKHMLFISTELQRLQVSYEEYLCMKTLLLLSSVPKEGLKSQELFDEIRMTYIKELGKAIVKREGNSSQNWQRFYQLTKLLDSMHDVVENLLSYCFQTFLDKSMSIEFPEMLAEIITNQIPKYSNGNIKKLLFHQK
Method: Similar hybrid receptors GR/NER, GR/NUC and GR/PPAR, in identical expression plasmid backgrounds were prepared essentially as described for the construction of the GR/mPPAR and GR/NUC chimeric receptors in Schmidt et al., "Identification of a new member of the steroid hormone receptor superfamily that is activated by a peroxisome proliferator and fatty acids," Mol. Endocrinol., 6(10):1634-41, 1992, and in Boie et al., "Enantioselective activation of the peroxisome proliferator-activated receptor", J. Biol. Chem. 268(8):5530-4, 1993.
Briefly, the amino terminal portion of the mouse glucocorticoid receptor (mGR), that includes the DNA binding domain was fused to the putative ligand binding domains of the nuclear receptor NER, hNUC-I (Schmidt et al., 1992), mPPAR (Issenmann and Green, 1990) to form the respective chimeric receptors GR/NER, GR/NUC and GR/PPAR. The GR/NER chimeric receptor was constructed as described for the GR/NUC and GR/PPAR hybrid receptors (Schmidt et al., 1992; Boie et al). The cDNA sequences coding for amino acids Arg^155 and Glu^156 of the NER receptor were converted to the Xho I restriction site, that was later used for the ligation to the GR cDNA sequences that coded for the DNA binding domain. Thus, converting amino acid residues Arg^155 and Glu^156 of NER receptor to amino acid residues Ser^155 and His^156.
The ligand transcription assay mediated by GR/PPAR in COS cells was performed as described in Example 4. The cells were treated with TOFA and Cerulenin at 0.1, 1, 10 and 100 μM.

[4] = test system: reporter gene under the control of the promoter of SV40; assay: Luciferase expression with reporter gene under control of the SV40 promoter; assay type: cell-based
[5] = molecular target: T2, native mouse glucocorticoid receptor (Mus musculus, UniProt P06537); assay: Transcription assay, native glucocorticoid receptor co-transfected with MMTV-luciferase reporter
T2 sequence (P06537 1-792): T1 sequence (P06537 1-792 partner)
Method: The reporter gene was the plasmid pJA358 in which the expression of firefly luciferase is regulated by two tandem repeats of the glucocorticoid hormone response element (GRE) linked to the MMTV promoter (Boie et al., 1993).
Transient transfection of COS and CV1 cells was performed as described (Schmidt 1992). Cells were plated (1.5×10^5 in 1 mL) into 12 well dishes in phenol red-free medium supplemented with activated charcoal treated fetal calf serum. The next day 0.12 mL of DNA 10 μg/ml (5 μg receptor DNA and 5 μg reporter plasmid), as a calcium phosphate precipitate, was added to the cells. Ligands were added to the cells 30 minutes after transfection. The next day (18 hours), the cells were washed and fresh ligands added. Twenty-four hours later, cell extracts were prepared and assayed for luciferase enzyme activity using the luciferase assay system (Promega Madison, Wis.). Each transfection was performed in triplicate and the luciferase activity of each sample measured in duplicate using the AutoClinilumat (Berthold Nashua, N.H.).
The transfected cells were treated with TOFA at 2 μM, 10 μM, 20 μM, and 50 μM and oleic acid at 50 μM, and 300 μM.

GR/NER chimeric receptor [6] = assay: Activation of GR/NER in COS-7 cells (luciferase); conditions: 1440 min
Method: The ligand dependent transcription assays were performed as described in Example 4. The transfected COS cells were treated with dopamine, TOFA, or with the combination of TOFA and dopamine at the indicated concentrations and tested for luciferase activity.

[7] = molecular target: T1, GR/PPAR chimeric receptor; assay: Ligand dependent transcription assay, GR/PPAR chimeric receptor with MMTV-luciferase reporter; assay type: cell-based; conditions: read-out: Fold of stimulation GR/PPAR
[8] = TOFA 10 μM with dopamine 100 μM
[9] = TOFA 100 μM with dopamine 100 μM
[10] = COS, read-out: Fold of stimulation GR/PPAR
[11] = read-out: Fold of stimulation GR

## CCCCCCCCCCCCCCOc1ccc(C(=O)O)o1 [TOFA, 5-(tetradecyloxy)-2-furan carboxylic acid]
[1]; 24 h later 0.1 mg/kg Haloperidol
  Catalepsy Duration: 28.9 ± 4.5 s
[1]; no challenge
  Catalepsy Duration: 0 s
[1]; TOFA 0.4 mg/kg S.C., 24 h before 0.1 mg/kg Haloperidol
  Effect of TOFA pretreatment on Haloperidol-induced catalepsy: did not significantly affect; also recorded: unaffected
GR/NER chimeric receptor [2]; [8]
  Fold of stimulation GR/NER: 1.40 ± 0.05 fold
GR/NER chimeric receptor [2]; [9]
  Fold of stimulation GR/NER: 1.60 ± 0.07 fold
GR/NER chimeric receptor [2]; TOFA 100 μM, no dopamine
  Fold of stimulation GR/NER: 3.70 ± 0.06 fold
[3]
  Expression mediated by GR/PPAR: stimulated expression
[3]; [10]
  fold induction at 0.1 µM: 1.04 ± 0.14
  fold induction at 1 µM: 2.38 ± 0.16
  fold induction at 10 µM: 4.43 ± 0.23
  fold induction at 100 µM: 4.1 ± 0.52
[3]; read-out: Fold of stimulation GR/PPAR
  fold induction at 10 µM: 4.08 ± 0.1
[4]
  Expression of luciferase, reporter under SV40 promoter: did not stimulate the expression of luciferase
[5]
  Expression of MMTV-luciferase reporter after co-transfection of native glucocorticoid receptor: did not stimulate expression
[5]; [11]
  fold induction at 2 µM: 1.02 ± 0.4
  fold induction at 10 µM: 0.8 ± 0.14
  fold induction at 50 µM: 0.91 ± 0.3
GR/NER chimeric receptor [6]; [8]
  Fold of stimulation GR/NER: 3.24 ± 0.06 fold
GR/NER chimeric receptor [6]; [9]
  Fold of stimulation GR/NER: 2.85 ± 0.07 fold
GR/NER chimeric receptor [6]; TOFA 100 μM, no dopamine
  Fold of stimulation GR/NER: 3.36 ± 0.04 fold
[7]
  fold induction at 2 µM: 2.89 ± 0.13
  fold induction at 20 µM: 5.75 ± 0.14
